Each block holds one compound with its values, some of them ahead of it.
Tested on: 299254-011-R-J1-PDC complex spheroids viability
Assay: Anticancer human tumor 299254-011-R-J1-PDC patient-derived melanoma cell line growth inhibition [GQUAD]
Settings: for IC50: curve of first compound; for viability, T/C: stronger effect = lower value
Summary of the method: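 Viability of tumor cells grown as complex spheroids with endothelial and stromal cells, exposed to drug combinations. Top concentration at or near clinical Cmax (else 10 microM), diluted in half-log increments.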

[1] = second compound 0.0316 µM, first compound 0.0316 µM
[2] = second compound 0.0316 µM, first compound 0.1 µM
[3] = second compound 0.0316 µM, first compound 0.316 µM
[4] = second compound 0.0316 µM, first compound 1 µM
[5] = second compound 0.0316 µM, first compound 3.16 µM
[6] = second compound 0.0316 µM, first compound 10 µM
[7] = second compound 0.1 µM, first compound 0.0316 µM
[8] = second compound 0.1 µM, first compound 0.1 µM
[9] = second compound 0.1 µM, first compound 0.316 µM
[10] = second compound 0.1 µM, first compound 1 µM
[11] = second compound 0.1 µM, first compound 3.16 µM
[12] = second compound 0.1 µM, first compound 10 µM
[13] = second compound 0.316 µM, first compound 0.0316 µM
[14] = second compound 0.316 µM, first compound 0.1 µM
[15] = second compound 0.316 µM, first compound 0.316 µM
[16] = second compound 0.316 µM, first compound 1 µM
[17] = second compound 0.316 µM, first compound 3.16 µM
[18] = second compound 0.316 µM, first compound 10 µM
[19] = second compound 1 µM, first compound 0.0316 µM
[20] = second compound 1 µM, first compound 0.1 µM
[21] = second compound 1 µM, first compound 0.316 µM
[22] = second compound 1 µM, first compound 1 µM
[23] = second compound 1 µM, first compound 3.16 µM
[24] = second compound 1 µM, first compound 10 µM
[25] = second compound 3.16 µM, first compound 0.0316 µM
[26] = second compound 3.16 µM, first compound 0.1 µM
[27] = second compound 3.16 µM, first compound 0.316 µM
[28] = second compound 3.16 µM, first compound 1 µM
[29] = second compound 3.16 µM, first compound 3.16 µM
[30] = second compound 3.16 µM, first compound 10 µM
[31] = second compound 10 µM, first compound 0.0316 µM
[32] = second compound 10 µM, first compound 0.1 µM
[33] = second compound 10 µM, first compound 0.316 µM
[34] = second compound 10 µM, first compound 1 µM
[35] = second compound 10 µM, first compound 3.16 µM
[36] = second compound 10 µM, first compound 10 µM
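Note: spheroids exposed to the agents for seven days before readout.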
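Throughout, for viability, T/C: percent viability relative to DMSO vehicle control wells = 100%.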

Structure (SMILES): Nc1ccn(C2OC(CO)C(O)C2(F)F)c(=O)n1 (stereo not given) + Cc1cnc(CNC(=O)c2c(=O)c3ccc(N4CCCN(C)CC4)nc3n3c2sc2ccccc23)cn1
IC50 (second compound 0.0316 µM): > 10 µM | IC50 (second compound 0.1 µM): 0.282 µM | IC50 (second compound 0.316 µM): > 10 µM | IC50 (second compound 1 µM): 1 µM | IC50 (second compound 3.16 µM): 0.835 µM | IC50 (second compound 10 µM): < 0.0316 µM | viability, T/C [1]: 102% | viability, T/C [2]: 76.5% | viability, T/C [3]: 64.3% | viability, T/C [4]: 44.7% | viability, T/C [5]: 56.7% | viability, T/C [6]: 68% | viability, T/C [7]: 90.4% | viability, T/C [8]: 72% | viability, T/C [9]: 45.6% | viability, T/C [10]: 48% | viability, T/C [11]: 50.1% | viability, T/C [12]: 46.7% | viability, T/C [13]: 80.5% | viability, T/C [14]: 78.8% | viability, T/C [15]: 69% | viability, T/C [16]: 56.1% | viability, T/C [17]: 54.3% | viability, T/C [18]: 70.3% | viability, T/C [19]: 85.6% | viability, T/C [20]: 87% | viability, T/C [21]: 48.7% | viability, T/C [22]: 44.5% | viability, T/C [23]: 60.5% | viability, T/C [24]: 58.8% | viability, T/C [25]: 79.3% | viability, T/C [26]: 69.3% | viability, T/C [27]: 64.6% | viability, T/C [28]: 42.9% | viability, T/C [29]: 54.4% | viability, T/C [30]: 44.6% | viability, T/C [31]: 50% | viability, T/C [32]: 24.9% | viability, T/C [33]: 47.8% | viability, T/C [34]: 49.9% | viability, T/C [35]: 48.3% | viability, T/C [36]: 0.4%

Structure (SMILES): O=c1[nH]cc(F)c(=O)[nH]1 + Cc1cnc(CNC(=O)c2c(=O)c3ccc(N4CCCN(C)CC4)nc3n3c2sc2ccccc23)cn1
IC50 (second compound 0.0316 µM): > 10 µM | IC50 (second compound 0.1 µM): > 10 µM | IC50 (second compound 0.316 µM): > 10 µM | IC50 (second compound 1 µM): > 10 µM | IC50 (second compound 3.16 µM): > 10 µM | IC50 (second compound 10 µM): 0.0316 µM | viability, T/C [1]: 90.9% | viability, T/C [2]: 86% | viability, T/C [3]: 110% | viability, T/C [4]: 84.3% | viability, T/C [5]: 106% | viability, T/C [6]: 106% | viability, T/C [7]: 92.8% | viability, T/C [8]: 92.1% | viability, T/C [9]: 105% | viability, T/C [10]: 88.1% | viability, T/C [11]: 99.1% | viability, T/C [12]: 98.5% | viability, T/C [13]: 83.7% | viability, T/C [14]: 123% | viability, T/C [15]: 99.4% | viability, T/C [16]: 88.5% | viability, T/C [17]: 89.8% | viability, T/C [18]: 105% | viability, T/C [19]: 86.9% | viability, T/C [20]: 78% | viability, T/C [21]: 74.8% | viability, T/C [22]: 92.4% | viability, T/C [23]: 94.5% | viability, T/C [24]: 91.3% | viability, T/C [25]: 96% | viability, T/C [26]: 76% | viability, T/C [27]: 82.5% | viability, T/C [28]: 84.2% | viability, T/C [29]: 95.2% | viability, T/C [30]: 91.3% | viability, T/C [31]: 58.7% | viability, T/C [32]: 16.9% | viability, T/C [33]: 57.7% | viability, T/C [34]: 65.6% | viability, T/C [35]: 55.4% | viability, T/C [36]: 2.68%

Further lines, with some results ahead:

IC50 (second compound 0.0316 µM): > 10 µM | IC50 (second compound 0.1 µM): > 10 µM | IC50 (second compound 0.316 µM): > 10 µM | IC50 (second compound 1 µM): > 10 µM | IC50 (second compound 3.16 µM): > 10 µM | IC50 (second compound 10 µM): < 0.0316 µM
Structure (SMILES): C#Cc1c(F)ccc2cc(O)cc(-c3ncc4c(N5CC6CCC(C5)N6)nc(OCC56CCCN5CC(F)C6)nc4c3F)c12 (stereo not given) + Cc1cnc(CNC(=O)c2c(=O)c3ccc(N4CCCN(C)CC4)nc3n3c2sc2ccccc23)cn1
viability, T/C [1]: 108% | viability, T/C [2]: 87.8% | viability, T/C [3]: 102% | viability, T/C [4]: 93% | viability, T/C [5]: 96.2% | viability, T/C [6]: 79.8% | viability, T/C [7]: 123% | viability, T/C [8]: 99.2% | viability, T/C [9]: 122% | viability, T/C [10]: 91.7% | viability, T/C [11]: 103% | viability, T/C [12]: 80.5% | viability, T/C [13]: 113% | viability, T/C [14]: 115% | viability, T/C [15]: 117% | viability, T/C [16]: 87.1% | viability, T/C [17]: 91.1% | viability, T/C [18]: 74.1% | viability, T/C [19]: 81% | viability, T/C [20]: 105% | viability, T/C [21]: 94.4% | viability, T/C [22]: 102% | viability, T/C [23]: 83.1% | viability, T/C [24]: 85.6% | viability, T/C [25]: 74.8% | viability, T/C [26]: 103% | viability, T/C [27]: 99.8% | viability, T/C [28]: 85.8% | viability, T/C [29]: 83.4% | viability, T/C [30]: 88.6% | viability, T/C [31]: 50.6% | viability, T/C [32]: 18.7% | viability, T/C [33]: 43.6% | viability, T/C [34]: 33.4% | viability, T/C [35]: 51.3% | viability, T/C [36]: 0.39%

IC50 (second compound 0.0316 µM): 9.46 µM | IC50 (second compound 0.1 µM): 8.9 µM | IC50 (second compound 0.316 µM): 9.48 µM | IC50 (second compound 1 µM): 8.5 µM | IC50 (second compound 3.16 µM): 7.67 µM | IC50 (second compound 10 µM): < 0.0316 µM
Structure (SMILES): CCCS(=O)(=O)Nc1ccc(F)c(C(=O)c2c[nH]c3ncc(-c4ccc(Cl)cc4)cc23)c1F + Cc1cnc(CNC(=O)c2c(=O)c3ccc(N4CCCN(C)CC4)nc3n3c2sc2ccccc23)cn1
viability, T/C [1]: 107% | viability, T/C [2]: 94% | viability, T/C [3]: 83.1% | viability, T/C [4]: 106% | viability, T/C [5]: 130% | viability, T/C [6]: 47.1% | viability, T/C [7]: 119% | viability, T/C [8]: 129% | viability, T/C [9]: 92.9% | viability, T/C [10]: 128% | viability, T/C [11]: 116% | viability, T/C [12]: 42.6% | viability, T/C [13]: 92.8% | viability, T/C [14]: 109% | viability, T/C [15]: 92.9% | viability, T/C [16]: 99% | viability, T/C [17]: 113% | viability, T/C [18]: 47.5% | viability, T/C [19]: 88.5% | viability, T/C [20]: 85% | viability, T/C [21]: 105% | viability, T/C [22]: 96.8% | viability, T/C [23]: 106% | viability, T/C [24]: 42.4% | viability, T/C [25]: 85.5% | viability, T/C [26]: 96.6% | viability, T/C [27]: 106% | viability, T/C [28]: 91.5% | viability, T/C [29]: 118% | viability, T/C [30]: 35.1% | viability, T/C [31]: 4.58% | viability, T/C [32]: 0.48% | viability, T/C [33]: 0.57% | viability, T/C [34]: 0.54% | viability, T/C [35]: 0.42% | viability, T/C [36]: 0.34%

IC50 (second compound 0.0316 µM): 4.26 µM | IC50 (second compound 0.1 µM): 4.92 µM | IC50 (second compound 0.316 µM): 3.64 µM | IC50 (second compound 1 µM): 3.99 µM | IC50 (second compound 3.16 µM): 2.38 µM | IC50 (second compound 10 µM): 0.0316 µM
Structure (SMILES): COc1cccc2c1C(=O)c1c(O)c3c(c(O)c1C2=O)CC(O)(C(=O)CO)CC3OC1CC(N)C(O)C(C)O1 (stereo not given) + Cc1cnc(CNC(=O)c2c(=O)c3ccc(N4CCCN(C)CC4)nc3n3c2sc2ccccc23)cn1
viability, T/C [1]: 104% | viability, T/C [2]: 106% | viability, T/C [3]: 87% | viability, T/C [4]: 88.3% | viability, T/C [5]: 61.3% | viability, T/C [6]: 16.9% | viability, T/C [7]: 110% | viability, T/C [8]: 104% | viability, T/C [9]: 95.2% | viability, T/C [10]: 88.2% | viability, T/C [11]: 70.5% | viability, T/C [12]: 20.9% | viability, T/C [13]: 83.3% | viability, T/C [14]: 95% | viability, T/C [15]: 75.9% | viability, T/C [16]: 78.9% | viability, T/C [17]: 54.9% | viability, T/C [18]: 11.1% | viability, T/C [19]: 81.2% | viability, T/C [20]: 76.3% | viability, T/C [21]: 86.7% | viability, T/C [22]: 76.4% | viability, T/C [23]: 63% | viability, T/C [24]: 0.21% | viability, T/C [25]: 84.8% | viability, T/C [26]: 87.7% | viability, T/C [27]: 66.2% | viability, T/C [28]: 78.2% | viability, T/C [29]: 41.1% | viability, T/C [30]: 0.21% | viability, T/C [31]: 38.2% | viability, T/C [32]: 19.6% | viability, T/C [33]: 53.9% | viability, T/C [34]: 63.3% | viability, T/C [35]: 0.39% | viability, T/C [36]: 0.28%
